# Paper PMC12150326 (The Journal of Organic Chemistry, 2025)
# Where two headings read alike, the source gives them in different places.
# Columns and labels:
# Format in all cases: cell-based, human
# HCC-2998 = tested on: HCC-2998
# Procedure, shortened: (§1)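 Concentrations tested in the NCI-60 panel were 0.01, 0.1, 1, 10 and 100 μM. The endpoint taken forward was TGI, whose pattern across lines was run through COMPARE alongside earlier tubulin inhibitors.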
# M14 = tested on: M14
# Procedure, shortened: as §1
# OVCAR-5 = tested on: OVCAR-5
# Procedure, shortened: as §1
# T-47D = tested on: T-47D
# Procedure, shortened: as §1
# BT-549 = tested on: BT-549
# Procedure, shortened: as §1
# K-562 = tested on: K-562
# Procedure, shortened: as §1
# RPMI-8226 = tested on: RPMI-8226
# Procedure, shortened: as §1
# MOLT-4 = tested on: MOLT-4
# Procedure, shortened: as §1
# SNB-19 = tested on: SNB-19
# Procedure, shortened: (§2)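 NCI-60 panel, 5-dose format (100 μM → 0.01 μM, tenfold steps). TGI values used for COMPARE vs. known tubulin inhibitors.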
# NCI/ADR-RES = tested on: NCI/ADR-RES
# Procedure, shortened: as §1
# SW-620 = tested on: SW-620
# Procedure, shortened: as §1
# HCT-15 = tested on: HCT-15
# Procedure, shortened: as §1
# CAKI-1 = tested on: CAKI-1
# Procedure, shortened: as §1
# MDA-MB-435 = tested on: MDA-MB-435
# Procedure, shortened: as §2
# LOX IMVI = tested on: LOX IMVI
# Procedure, shortened: as §2
# UACC-257 = tested on: UACC-257
# Procedure, shortened: as §1
# SF-539 = tested on: SF-539
# Procedure, shortened: as §1
# UACC-62 = tested on: UACC-62
# Procedure, shortened: as §2
# UO-31 = tested on: UO-31
# Procedure, shortened: as §1
# U251 = tested on: U251
# Procedure, shortened: as §1
# CCRF-CEM = tested on: CCRF-CEM
# Procedure, shortened: as §2
# 786-0 = tested on: 786-0
# Procedure, shortened: as §1
# TK-10 = tested on: TK-10
# Procedure, shortened: as §2
# HS 578T = tested on: HS 578T
# Procedure, shortened: as §1
# OVCAR-8 = tested on: OVCAR-8
# Procedure, shortened: as §1
# RXF 393 = tested on: RXF 393
# Procedure, shortened: as §1
# SNB-75 = tested on: SNB-75
# Procedure, shortened: as §1
compound,measurement,setting,value
"COc1cc(C)c(-c2ccc(OC)c(=O)cc2C)c(OC)c1OC (single isomer, unassigned) [(aR)-6]",Log10GI50,HCC-2998,-5.55 Molar
same,Log10LC50,HCC-2998,> -4.00 Molar
same,Log10TGI,HCC-2998,> -4.00 Molar
same,GI50,HCC-2998; Homo sapiens,2820 nM
same,Log10GI50,HCC-2998; listed as (aR)-DM-MTC,-5.55 Molar
same,Log10GI50,M14,-6.07 Molar
same,Log10LC50,M14,> -4.00 Molar
same,Log10TGI,M14,> -4.00 Molar
same,GI50,M14; Homo sapiens,850 nM
same,Log10GI50,M14; listed as (aR)-DM-MTC,-6.07 Molar
same,Log10GI50,OVCAR-5,-5.36 Molar
same,Log10LC50,OVCAR-5,> -4.00 Molar
same,Log10TGI,OVCAR-5,> -4.00 Molar
same,GI50,OVCAR-5; Homo sapiens,4370 nM
same,Log10GI50,OVCAR-5; listed as (aR)-DM-MTC,-5.36 Molar
same,Log10GI50,T-47D,-5.15 Molar
same,Log10LC50,T-47D,> -4.00 Molar
same,Log10TGI,T-47D,> -4.00 Molar
same,GI50,"T-47D; Homo sapiens, T47D",7080 nM
same,Log10GI50,T-47D; listed as (aR)-DM-MTC,-5.15 Molar
same,Log10GI50,BT-549,-5.69 Molar
same,Log10LC50,BT-549,> -4.00 Molar
same,Log10TGI,BT-549,-5.18 Molar
same,GI50,BT-549; Homo sapiens,2040 nM
same,Log10GI50,BT-549; listed as (aR)-DM-MTC,-5.69 Molar
same,Log10GI50,K-562,-6.31 Molar
same,Log10LC50,K-562,> -4.00 Molar
same,Log10TGI,K-562,> -4.00 Molar
same,GI50,"K-562; Homo sapiens, K562",490 nM
same,Log10GI50,K-562; listed as (aR)-DM-MTC,-6.31 Molar
same,Log10GI50,RPMI-8226,-5.39 Molar
same,Log10LC50,RPMI-8226,> -4.00 Molar
same,Log10TGI,RPMI-8226,> -4.00 Molar
same,GI50,RPMI-8226; Homo sapiens,4070 nM
same,Log10GI50,RPMI-8226; listed as (aR)-DM-MTC,-5.39 Molar
same,Log10GI50,MOLT-4,-5.58 Molar
same,Log10LC50,MOLT-4,> -4.00 Molar
same,Log10TGI,MOLT-4,> -4.00 Molar
same,GI50,MOLT-4; Homo sapiens,2630 nM
same,Log10GI50,MOLT-4; listed as (aR)-DM-MTC,-5.58 Molar
same,Log10GI50,SNB-19,-5.53 Molar
same,Log10LC50,SNB-19,> -4.00 Molar
same,Log10TGI,SNB-19,> -4.00 Molar
same,GI50,SNB-19; Homo sapiens,2950 nM
same,Log10GI50,SNB-19; listed as (aR)-DM-MTC,-5.53 Molar
same,Log10GI50,NCI/ADR-RES,-5.76 Molar
same,Log10LC50,NCI/ADR-RES,> -4.00 Molar
same,GI50,NCI/ADR-RES; Homo sapiens,1740 nM
same,Log10GI50,NCI/ADR-RES; listed as (aR)-DM-MTC,-5.76 Molar
same,Log10GI50,SW-620,-5.91 Molar
same,Log10LC50,SW-620,> -4.00 Molar
same,Log10TGI,SW-620,> -4.00 Molar
same,GI50,SW-620; Homo sapiens,1230 nM
same,Log10GI50,SW-620; listed as (aR)-DM-MTC,-5.91 Molar
same,Log10GI50,HCT-15,-6.17 Molar
same,Log10LC50,HCT-15,> -4.00 Molar
same,Log10TGI,HCT-15,> -4.00 Molar
same,GI50,HCT-15; Homo sapiens,680 nM
same,Log10GI50,HCT-15; listed as (aR)-DM-MTC,-6.17 Molar
same,Log10GI50,CAKI-1,-6.03 Molar
same,Log10LC50,CAKI-1,> -4.00 Molar
same,Log10TGI,CAKI-1,> -4.00 Molar
same,GI50,CAKI-1; Homo sapiens,930 nM
same,Log10GI50,CAKI-1; listed as (aR)-DM-MTC,-6.03 Molar
same,Log10GI50,MDA-MB-435,-6.57 Molar
same,Log10LC50,MDA-MB-435,> -4.00 Molar
same,Log10TGI,MDA-MB-435,-6.13 Molar
same,GI50,MDA-MB-435; Homo sapiens,270 nM
same,Log10GI50,MDA-MB-435; listed as (aR)-DM-MTC,-6.57 Molar
same,Log10GI50,LOX IMVI,-5.69 Molar
same,Log10LC50,LOX IMVI,> -4.00 Molar
same,Log10TGI,LOX IMVI,> -4.00 Molar
same,GI50,LOX IMVI; Homo sapiens,2040 nM
same,Log10GI50,LOX IMVI; listed as (aR)-DM-MTC,-5.69 Molar
same,Log10GI50,UACC-257,-5.11 Molar
same,Log10LC50,UACC-257,> -4.00 Molar
same,Log10TGI,UACC-257,> -4.00 Molar
same,GI50,UACC-257; Homo sapiens,7760 nM
same,Log10GI50,UACC-257; listed as (aR)-DM-MTC,-5.11 Molar
same,Log10GI50,SF-539,-5.65 Molar
same,Log10LC50,SF-539,> -4.00 Molar
same,Log10TGI,SF-539,> -4.00 Molar
same,GI50,SF-539; Homo sapiens,2240 nM
same,Log10GI50,SF-539; listed as (aR)-DM-MTC,-5.65 Molar
same,Log10GI50,UACC-62,-6.03 Molar
same,Log10LC50,UACC-62,> -4.00 Molar
same,Log10TGI,UACC-62,> -4.00 Molar
same,GI50,UACC-62; Homo sapiens,930 nM
same,Log10GI50,UACC-62; listed as (aR)-DM-MTC,-6.03 Molar
same,Log10GI50,UO-31,-5.16 Molar
same,Log10LC50,UO-31,> -4.00 Molar
same,Log10TGI,UO-31,> -4.00 Molar
same,GI50,UO-31; Homo sapiens,6920 nM
same,Log10GI50,UO-31; listed as (aR)-DM-MTC,-5.16 Molar
same,Log10GI50,U251,-5.53 Molar
same,Log10LC50,U251,> -4.00 Molar
same,Log10TGI,U251,> -4.00 Molar
same,GI50,"U251; Homo sapiens, U-251",2950 nM
same,Log10GI50,U251; listed as (aR)-DM-MTC,-5.53 Molar
same,Log10GI50,CCRF-CEM,-5.71 Molar
same,Log10LC50,CCRF-CEM,> -4.00 Molar
same,Log10TGI,CCRF-CEM,> -4.00 Molar
same,GI50,CCRF-CEM; Homo sapiens,1950 nM
same,Log10GI50,CCRF-CEM; listed as (aR)-DM-MTC,-5.71 Molar
same,Log10GI50,786-0,-5.35 Molar
same,Log10LC50,786-0,> -4.00 Molar
same,Log10TGI,786-0,> -4.00 Molar
same,GI50,786-0; Homo sapiens,4470 nM
same,Log10GI50,786-0; listed as (aR)-DM-MTC,-5.35 Molar
same,Log10GI50,TK-10,-4.18 Molar
same,Log10LC50,TK-10,> -4.00 Molar
same,Log10TGI,TK-10,> -4.00 Molar
same,GI50,TK-10; Homo sapiens,66100 nM
same,Log10GI50,TK-10; listed as (aR)-DM-MTC,-4.18 Molar
same,Log10GI50,HS 578T,-5.81 Molar
same,Log10LC50,HS 578T,> -4.00 Molar
same,GI50,HS 578T; Homo sapiens,1550 nM
same,Log10GI50,HS 578T; listed as (aR)-DM-MTC,-5.81 Molar
same,Log10GI50,OVCAR-8,-5.47 Molar
same,Log10LC50,OVCAR-8,> -4.00 Molar
same,Log10TGI,OVCAR-8,> -4.00 Molar
same,GI50,OVCAR-8; Homo sapiens,3390 nM
same,Log10GI50,OVCAR-8; listed as (aR)-DM-MTC,-5.47 Molar
same,Log10GI50,RXF 393,-5.71 Molar
same,Log10LC50,RXF 393,> -4.00 Molar
same,Log10TGI,RXF 393,> -4.00 Molar
same,GI50,RXF 393; Homo sapiens,1950 nM
same,Log10GI50,RXF 393; listed as (aR)-DM-MTC,-5.71 Molar
same,Log10GI50,SNB-75,-6.04 Molar
same,Log10LC50,SNB-75,> -4.00 Molar
same,GI50,SNB-75; Homo sapiens,910 nM
same,Log10GI50,SNB-75; listed as (aR)-DM-MTC,-6.04 Molar
